Reference: patent US20240277617A1, “NANOTECHNOLOGICAL PLATFORM BASED ON POLYURETHANE/POLYUREA CHEMISTRY TO FURNISH WATER-OIL-WATER MULTI WALLED AND FUNCTIONALIZABLE NANOCAPSULES AND THEIR PREPARATION PROCESS” (ECOPOL TECH SL, priority 2021, published 2024)

Assays:
[1] = test system: A375 Human Melanoma cell line; assay: In vivo fluorescence imaging biodistribution in subcutaneous tumor mice; details: i.v. at day 14 post-tumor challenge; from 3 to 9-days after NCs injection
Experimental: A model of immunodepressed mice have been used to conduct this experiment. Female NSG mice (9 weeks old, Charles River) were challenged by subcutaneous (s.c). injection of A375 Human Melanoma cell line (1×10^6) cells on the right flank with a 23-gauge needle. Amphoteric ICG-NCs and cationic ICG-NCs were administered i.v. at day 14 post-tumor challenge. PBS and ICG free was injected to control groups. Fluorescence was monitoring by in vivo imaging system (IVIS; Perkin Elmer, Waltham, MA, USA) using excitation/emission wavelength of 780 nm/845 nm.

[2] = Acute toxicity analysis (haematological and biochemical parameters) after i.v. administration; design: species or system BALB/C mice; details: mouse, in vivo, iv
Experimental: Encapsulated non-loaded NCS nanocapsules (cationic and amphoteric nanocapsules) were i.v. administered to female BALB/C mice (8 weeks old; Charles River) at three different doses. Blood and serum samples were obtained at 24 h post-administration for acute toxicity analysis (SBCV and SHCV, Universidad Autónoma de Barcelona).
Haematological parameters analysed in blood included white blood cells (WBC) count, red blood cells (RBC) count, haemoglobin (HGB), red blood cell specific volume (HCT), mean corpuscular volume (MCV), mean corpuscular haemoglobin (MCH), mean corpuscular haemoglobin concentration (MCHC), platelet (PLT), lymphocytes (LYMPH), monocytes (MONO), neutrophils (NEU), eosinophils (EO), and basophils (BASO).
Biochemical parameters detected in serum included albumin, alanine aminotransferase (ALT), aspartate aminotransferase (AST), total bilirubin levels (TBIL), creatinine (CREA), gamma-glutamyl transferase (GGT), potassium, total proteins, sodium, and urea.
Encapsulated or free R848 was i.v. administered to female BALB/C mice (8 weeks old; Charles River) at three different doses. Blood and serum samples were obtained at 24 h post-administration for acute toxicity analysis (SBCV and SHCV, Universidad Autónoma de Barcelona).

Row | Structure (SMILES) | fluorescence signal / accumulation in tumor locations [1] | biochemical parameters in serum with respect to untreated groups [2] | haematological parameters with respect to untreated groups [2]
1 | CC1(C)C(/C=C/C=C/C=C/C=C2\N(CCCCS(=O)(=O)[O-])c3ccc4ccccc4c3C2(C)C)=[N+](CCCCS(=O)(=O)[O-])c2ccc3ccccc3c21.[Na+] [ICG, Indocyanine Green] | low |  | 
2 | CCOCc1nc2c(N)nc3ccccc3c2n1CC(C)(C)O [Sample R848, Resiquimod] |  | No significant differences | No significant differences
